Data taken from the supplement of paper PMC10307832.

What was measured:
Test in all cases: relative viability (nuclei count vs DMSO), 5 days (fraction); higher = more cells survive
LCLC-97TM1 = tested on: LCLC-97TM1
How it was run: (§1)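 After 5 days of treatment, lung cancer cells in 1536-well plates were fixed and stained in a single step (final 0.05% Triton X-100, 1% formaldehyde, 1 ug/ml Hoechst) and their nuclei counted on 4× images. Treatment had been applied by pin tool the day after seeding as one drug alone or as a fixed anchor-drug dose with five library-drug doses (not always all listed) in √10 steps. Relative viability is the nuclei count of treated wells divided by that of vehicle wells, and values are medians of duplicate plates.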

NCI-H650 = tested on: NCI-H650
How it was run: as §1

201T = tested on: 201T
How it was run: as §1

NCI-H2087 = tested on: NCI-H2087
How it was run: as §1

NCI-H2405 = tested on: NCI-H2405
How it was run: as §1

PC-14 = tested on: PC-14
How it was run: as §1

NCI-H661 = tested on: NCI-H661
How it was run: as §1

HCC-827 = tested on: HCC-827
How it was run: as §1

NCI-H1666 = tested on: NCI-H1666
How it was run: as §1

NCI-H520 = tested on: NCI-H520
How it was run: as §1

COR-L 105 = tested on: COR-L 105
How it was run: as §1

NCI-H647 = tested on: NCI-H647
How it was run: as §1

EPLC-272H = tested on: EPLC-272H
How it was run: as §1

LC-2-ad = tested on: LC-2-ad
How it was run: as §1

NCI-H2347 = tested on: NCI-H2347
How it was run: as §1

ChaGo-K-1 = tested on: ChaGo-K-1
How it was run: as §1

NCI-H1915 = tested on: NCI-H1915
How it was run: as §1

HCC-78 = tested on: HCC-78
How it was run: as §1

RERF-LC-KJ = tested on: RERF-LC-KJ
How it was run: as §1

NCI-H23 = tested on: NCI-H23
How it was run: as §1

NCI-H2126 = tested on: NCI-H2126
How it was run: as §1

H3255 = tested on: H3255
How it was run: as §1

COc1cc2nccc(Oc3ccc(NC(=O)Nc4cc(C)on4)c(Cl)c3)c2cc1OC [Tivozanib] + O=C(c1cc(Cc2n[nH]c(=O)c3ccccc23)ccc1F)N1CCN(C(=O)C2CC2)CC1 [Olaparib] (partner 8 µM)
relative viability (LCLC-97TM1; first compound 0.005 µM): 0.35
relative viability (LCLC-97TM1; first compound 0.01581 µM): 0.34
relative viability (LCLC-97TM1; first compound 0.05 µM): 0.321
relative viability (LCLC-97TM1; first compound 0.1581 µM): 0.427
relative viability (LCLC-97TM1; first compound 0.5 µM): 0.436
relative viability (NCI-H650; first compound 0.005 µM): 0.321
relative viability (NCI-H650; first compound 0.01581 µM): 0.359
relative viability (NCI-H650; first compound 0.05 µM): 0.42
relative viability (NCI-H650; first compound 0.1581 µM): 0.401
relative viability (NCI-H650; first compound 0.5 µM): 0.323
relative viability (201T; first compound 0.005 µM): 0.826
relative viability (201T; first compound 0.01581 µM): 0.853
relative viability (201T; first compound 0.05 µM): 0.821
relative viability (201T; first compound 0.1581 µM): 0.875
relative viability (201T; first compound 0.5 µM): 0.868
relative viability (NCI-H2087; first compound 0.005 µM): 0.542
relative viability (NCI-H2087; first compound 0.01581 µM): 0.51
relative viability (NCI-H2087; first compound 0.05 µM): 0.652
relative viability (NCI-H2087; first compound 0.1581 µM): 0.683
relative viability (NCI-H2087; first compound 0.5 µM): 0.713
relative viability (NCI-H2405; first compound 0.005 µM): 0.831
relative viability (NCI-H2405; first compound 0.01581 µM): 0.95
relative viability (NCI-H2405; first compound 0.05 µM): 0.916
relative viability (NCI-H2405; first compound 0.1581 µM): 1.01
relative viability (NCI-H2405; first compound 0.5 µM): 0.669
relative viability (PC-14; first compound 0.005 µM): 0.28
relative viability (PC-14; first compound 0.01581 µM): 0.316
relative viability (PC-14; first compound 0.05 µM): 0.262
relative viability (PC-14; first compound 0.1581 µM): 0.376
relative viability (PC-14; first compound 0.5 µM): 0.306
relative viability (NCI-H661; first compound 0.005 µM): 0.703
relative viability (NCI-H661; first compound 0.01581 µM): 0.708
relative viability (NCI-H661; first compound 0.05 µM): 0.741
relative viability (NCI-H661; first compound 0.1581 µM): 0.77
relative viability (NCI-H661; first compound 0.5 µM): 0.699
relative viability (HCC-827; first compound 0.005 µM): 0.572
relative viability (HCC-827; first compound 0.01581 µM): 0.719
relative viability (HCC-827; first compound 0.05 µM): 0.623
relative viability (HCC-827; first compound 0.1581 µM): 0.612
relative viability (HCC-827; first compound 0.5 µM): 0.623
relative viability (NCI-H1666; first compound 0.005 µM): 0.777
relative viability (NCI-H1666; first compound 0.01581 µM): 0.713
relative viability (NCI-H1666; first compound 0.05 µM): 0.739
relative viability (NCI-H1666; first compound 0.1581 µM): 0.802
relative viability (NCI-H1666; first compound 0.5 µM): 0.719
relative viability (NCI-H520; first compound 0.005 µM): 0.42
relative viability (NCI-H520; first compound 0.01581 µM): 0.354
relative viability (NCI-H520; first compound 0.05 µM): 0.334
relative viability (NCI-H520; first compound 0.1581 µM): 0.315
relative viability (NCI-H520; first compound 0.5 µM): 0.301
relative viability (COR-L 105; first compound 0.005 µM): 0.629
relative viability (COR-L 105; first compound 0.01581 µM): 0.558
relative viability (COR-L 105; first compound 0.05 µM): 0.773
relative viability (COR-L 105; first compound 0.1581 µM): 0.713
relative viability (COR-L 105; first compound 0.5 µM): 0.705
relative viability (NCI-H647; first compound 0.005 µM): 0.505
relative viability (NCI-H647; first compound 0.01581 µM): 0.529
relative viability (NCI-H647; first compound 0.05 µM): 0.63
relative viability (NCI-H647; first compound 0.1581 µM): 0.56
relative viability (NCI-H647; first compound 0.5 µM): 0.437
relative viability (EPLC-272H; first compound 0.005 µM): 0.63
relative viability (EPLC-272H; first compound 0.01581 µM): 0.969
relative viability (EPLC-272H; first compound 0.05 µM): 0.741
relative viability (EPLC-272H; first compound 0.1581 µM): 0.783
relative viability (EPLC-272H; first compound 0.5 µM): 0.659
relative viability (LC-2-ad; first compound 0.005 µM): 0.768
relative viability (LC-2-ad; first compound 0.01581 µM): 0.793
relative viability (LC-2-ad; first compound 0.05 µM): 0.787
relative viability (LC-2-ad; first compound 0.1581 µM): 0.794
relative viability (LC-2-ad; first compound 0.5 µM): 0.729
relative viability (NCI-H2347; first compound 0.005 µM): 0.566
relative viability (NCI-H2347; first compound 0.01581 µM): 0.65
relative viability (NCI-H2347; first compound 0.05 µM): 0.608
relative viability (NCI-H2347; first compound 0.1581 µM): 0.638
relative viability (NCI-H2347; first compound 0.5 µM): 0.512
relative viability (ChaGo-K-1; first compound 0.005 µM): 0.386
relative viability (ChaGo-K-1; first compound 0.01581 µM): 0.381
relative viability (ChaGo-K-1; first compound 0.05 µM): 0.409
relative viability (ChaGo-K-1; first compound 0.1581 µM): 0.412
relative viability (ChaGo-K-1; first compound 0.5 µM): 0.37
relative viability (NCI-H1915; first compound 0.005 µM): 0.255
relative viability (NCI-H1915; first compound 0.01581 µM): 0.279
relative viability (NCI-H1915; first compound 0.05 µM): 0.286
relative viability (NCI-H1915; first compound 0.1581 µM): 0.291
relative viability (NCI-H1915; first compound 0.5 µM): 0.206
relative viability (HCC-78; first compound 0.005 µM): 0.796
relative viability (HCC-78; first compound 0.01581 µM): 0.746
relative viability (HCC-78; first compound 0.05 µM): 0.732
relative viability (HCC-78; first compound 0.1581 µM): 0.872
relative viability (HCC-78; first compound 0.5 µM): 0.581
relative viability (RERF-LC-KJ; first compound 0.005 µM): 0.97
relative viability (RERF-LC-KJ; first compound 0.01581 µM): 0.954
relative viability (RERF-LC-KJ; first compound 0.05 µM): 0.974
relative viability (RERF-LC-KJ; first compound 0.1581 µM): 0.929
relative viability (RERF-LC-KJ; first compound 0.5 µM): 0.875
relative viability (NCI-H23; first compound 0.005 µM): 0.363
relative viability (NCI-H23; first compound 0.01581 µM): 0.288
relative viability (NCI-H23; first compound 0.05 µM): 0.347
relative viability (NCI-H23; first compound 0.5 µM): 0.253
relative viability (NCI-H2126; first compound 0.005 µM): 0.954
relative viability (NCI-H2126; first compound 0.01581 µM): 0.907
relative viability (NCI-H2126; first compound 0.05 µM): 1
relative viability (NCI-H2126; first compound 0.1581 µM): 0.845
relative viability (NCI-H2126; first compound 0.5 µM): 0.899
relative viability (H3255; first compound 0.005 µM): 0.544
relative viability (H3255; first compound 0.01581 µM): 0.56
relative viability (H3255; first compound 0.05 µM): 0.541
relative viability (H3255; first compound 0.1581 µM): 0.602
relative viability (H3255; first compound 0.5 µM): 0.513
